According to article PMC12720774, “Detergents alter the stability and lipid binding properties of the CD1d immunoreceptor” (Protein Science : A Publication of the Protein Society, 2025):
Values joined by “and” are separate entries in the source; they are usually repeats but may differ in a detail not shown here. Equal values may be shown once. Read-outs that look alike come from different tables or passages of the source.

Columns and labels:
hCD1d = hCD1d (Homo sapiens, UniProt P15813+P61769); assay: Nano differential scanning fluorimetry (nanoDSF) thermal stability; type: binding; parameters: TEV protease cleavage site ENLYFQS (C); BirA biotinylation site (C); His7 (C); made in house; host or cells: TurboCHO cells (GenScript)
Chain of hCD1d (P61769+P15813 fused): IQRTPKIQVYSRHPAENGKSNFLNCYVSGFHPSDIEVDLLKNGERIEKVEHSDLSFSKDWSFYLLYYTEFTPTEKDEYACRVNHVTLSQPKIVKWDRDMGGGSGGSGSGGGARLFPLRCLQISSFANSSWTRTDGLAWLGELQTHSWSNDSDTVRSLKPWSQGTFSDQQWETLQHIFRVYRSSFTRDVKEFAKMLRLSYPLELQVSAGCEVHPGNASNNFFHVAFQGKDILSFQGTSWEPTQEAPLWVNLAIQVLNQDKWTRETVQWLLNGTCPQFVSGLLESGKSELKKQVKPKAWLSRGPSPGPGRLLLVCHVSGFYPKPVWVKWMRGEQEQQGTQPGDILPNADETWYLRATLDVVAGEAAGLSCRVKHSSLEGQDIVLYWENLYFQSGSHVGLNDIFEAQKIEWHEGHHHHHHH
Excerpt: We next sought to probe the ability of each detergent to influence the thermal stability of hCD1d. NanoDSF has been previously applied to measure lipid/detergent‐induced thermal stability changes in target proteins (Cecchetti et al., [2021]; Kotov et al., [2019]), but has not yet been applied to ligand binding to CD1. NanoDSF measures the ITF ratio (F 350 nm/F 330 nm) of proteins as a function of temperature to extract thermodynamic parameters. Given that ligand binding typically shifts the melting temperature of proteins, the effect of a ligand on protein stability can be approximated with the ΔT m value (the difference in T m with and without excess ligand) (Cecchetti et al., [2021]; Kotov et al., [2019]). We found all detergents tested to destabilize hCD1d, albeit to different degrees, with ΔT m values ranging from −0.8 to −14.2°C (Figures 4, S4, and Table 1).
Nano differential scanning fluorometry (nanoDSF) was performed using a Prometheus NT.48 (NanoTemper Technologies). Purified hCD1d at 1 μM in 1X PBS pH 7.4 was loaded into nanoDSF grade standard capillaries (NanoTemper Technologies) and exposed to temperatures ranging from 20 to 95°C with a thermal ramping rate of 1°C/min. Excitation power was set to 50%. The ratio of intrinsic fluorescence emission (F 350 nm/F 330 nm) was monitored. Melting temperatures (T m) were obtained from fitting the first derivative plots in the Prometheus NT.48 Software. The experiments were performed in triplicate, and data are presented as the mean ± standard deviation (n = 3).
For experiments with most detergents, prior to data acquisition, hCD1d and detergent or lipid samples were incubated at 37°C overnight (~12 h) to simulate in vitro and in vivo loading conditions. […] For 18:1 LPC experiments: nanoDSF spectra were acquired in the absence and presence of 18:1 LPC in 1X PBS pH 7.4 at 25°C.

[1] = biological target: T1, CSP 319‐328/HLA‐B*08:01/hβ2M complex (Homo sapiens, UniProt P01889, A93T/A95T/D138N/E176V/E187T/K202T/Q94N/R180D/S35A/V36M/Y33D/Y91F); assay: nanoDSF with peptide/HLA complex; type: binding; conditions: for nanoDSF melting temperature of peptide/HLA: peptide/HLA with Tween 20, replicates
T1 construct: made in house
Excerpt: (§1) To determine whether detergent effects were specific to hCD1d, we performed analogous ITF, MST, and nanoDSF experiments with a peptide/HLA complex. HLA‐B*08:01, presenting the Plasmodium falciparum derived peptide […] ([…]), was selected as a representative model system since the peptide antigen contains hydrophilic solvent‐exposed residues in the antigen‐binding groove (Frooman et al., [2025]). Although structurally similar to that of hCD1d, HLA‐B*08:01 shares low sequence identity (Figure S10a). […] By nanoDSF, ODG caused minimal destabilization of either complex (ΔT m≈−0.2 to −0.8°C; Figure S10f). […] We posit that lipid‐specific unloading effects of detergent are due to either hydrophobic residues in the antigen binding groove (detergent‐CD1d interactions) and/or the hydrophobic nature of the lipid antigen (detergent‐lipid interactions).
(§2) For comparison with peptide/HLA molecules, we prepared recombinant CSP 319‐328/HLA‐B*08:01/hβ2M complex using in vitro refolding methods fully described previously (Frooman et al., [2025]). The peptide sequence for CSP 319–328 is […]. This peptide was chosen since it contains Lys, Gln, and Asp residues predicted to be solvent‐exposed in the HLA‐B*08:01 binding groove (Frooman et al., [2025]).
NanoDSF experiments with peptide/HLA molecules and detergents were performed using an analogous protocol.

[2] = biological target: T1, CSP 319‐328/HLA‐B*08:01/hβ2M complex; assay: MST with peptide/HLA complex; type: binding; conditions: for MST normalized fluorescence signal (Fnorm): peptide/HLA with Tween 20, replicates
Excerpt: as §1, §2
MST experiments with peptide/HLA molecules and detergents were performed using an analogous protocol.

[3] = approximate, ref Anatrace catalogue, cited from earlier work

Tween 20
ΔTm aveage (hCD1d; Figure 5C, nanoDSF, hCD1d with detergent): -8.33 °C
ΔT m (NanoDSF) (hCD1d; T m difference between hCD1d in the absence and presence of 1000 μM detergent, 1 μM hCD1d): -8.3 ± 0.2 °C
ΔT m (nanoDSF), lipid/hCD1d (hCD1d; absence vs maximum concentration of detergent, 1 μM endo/hCD1d (Figure S10)): ≈ −8.3 °C
ΔT m, detergent class summary (hCD1d; approximate): −8 to −10 °C
ΔT m (nanoDSF), peptide/HLA ([1]; absence vs maximum concentration of detergent, 1 μM peptide/HLA): ≈ −0.3 °C
nanoDSF melting temperature of peptide/HLA ([1]; concentration 0.030518 (unit not given)): 55.19 and 55.32 and 55.37
nanoDSF melting temperature of peptide/HLA ([1]; concentration 0.061035 (unit not given)): 55.29 and 55.45 and 55.24
nanoDSF melting temperature of peptide/HLA ([1]; concentration 0.12207 (unit not given)): 55.51 and 55.26 and 55.3
nanoDSF melting temperature of peptide/HLA ([1]; concentration 0.244141 (unit not given)): 55.15 and 55.36 and 55.47
nanoDSF melting temperature of peptide/HLA ([1]; concentration 0.488281 (unit not given)): 55.37 and 55.28 and 55.18
nanoDSF melting temperature of peptide/HLA ([1]; concentration 0.976563 (unit not given)): 55.33 and 55.35 and 55.37
nanoDSF melting temperature of peptide/HLA ([1]; concentration 1.95312 (unit not given)): 55.37 and 55.15
nanoDSF melting temperature of peptide/HLA ([1]; concentration 3.90625 (unit not given)): 55.29 and 55.17 and 55.23
nanoDSF melting temperature of peptide/HLA ([1]; concentration 7.8125 (unit not given)): 55.43 and 55.31 and 55.36
nanoDSF melting temperature of peptide/HLA ([1]; concentration 15.625 (unit not given)): 55.24 and 55.22 and 55.41
nanoDSF melting temperature of peptide/HLA ([1]; concentration 31.25 (unit not given)): 55.63 and 55.25 and 55.23
nanoDSF melting temperature of peptide/HLA ([1]; concentration 62.5 (unit not given)): 55.32 and 55.31 and 55.25
nanoDSF melting temperature of peptide/HLA ([1]; concentration 125 (unit not given)): 55.13 and 55.18 and 55.19
nanoDSF melting temperature of peptide/HLA ([1]; concentration 250 (unit not given)): 55.22 and 55.06 and 55.24
nanoDSF melting temperature of peptide/HLA ([1]; concentration 500 (unit not given)): 54.35 and 55.14 and 54.93
nanoDSF melting temperature of peptide/HLA ([1]; concentration 1000 (unit not given)): 55.13 and 54.89 and 54.93
Kd ([2]; 100 nM AF647‐labeled peptide/HLA, 25°C, read-out: K D (MST), peptide/HLA): 10.1 ± 2.8 µM
MST normalized fluorescence signal (Fnorm) ([2]; concentration 3.05176e-8 (unit not given)): 826.857 and 829.996 and 831.035
MST normalized fluorescence signal (Fnorm) ([2]; concentration 6.10352e-8 (unit not given)): 827.636 and 831.405 and 830.579
MST normalized fluorescence signal (Fnorm) ([2]; concentration 1.2207e-7 (unit not given)): 825.955 and 829.58 and 832.602
MST normalized fluorescence signal (Fnorm) ([2]; concentration 2.44141e-7 (unit not given)): 826.8 and 829.861 and 831.726
MST normalized fluorescence signal (Fnorm) ([2]; concentration 4.88281e-7 (unit not given)): 824.798 and 829.349 and 832.449
MST normalized fluorescence signal (Fnorm) ([2]; concentration 9.76563e-7 (unit not given)): 827.728 and 832.261 and 832.695
MST normalized fluorescence signal (Fnorm) ([2]; concentration 1.95313e-6 (unit not given)): 829.662 and 834.525 and 833.392
MST normalized fluorescence signal (Fnorm) ([2]; concentration 3.90625e-6 (unit not given)): 826.877 and 835.214 and 835.492
MST normalized fluorescence signal (Fnorm) ([2]; concentration 7.8125e-6 (unit not given)): 836.072 and 833.005 and 835.4
MST normalized fluorescence signal (Fnorm) ([2]; concentration 1.5625e-5 (unit not given)): 830.346 and 831.213 and 835.161
MST normalized fluorescence signal (Fnorm) ([2]; concentration 3.125e-5 (unit not given)): 838.975 and 840.638 and 846.826
MST normalized fluorescence signal (Fnorm) ([2]; concentration 6.25e-5 (unit not given)): 839.005 and 846.034 and 849.234
MST normalized fluorescence signal (Fnorm) ([2]; concentration 0.000125 (unit not given)): 840.518 and 838.062 and 842.957
MST normalized fluorescence signal (Fnorm) ([2]; concentration 0.00025 (unit not given)): 834.255 and 840.226 and 843.206
MST normalized fluorescence signal (Fnorm) ([2]; concentration 0.0005 (unit not given)): 839.953 and 837.123 and 843.815
MST normalized fluorescence signal (Fnorm) ([2]; concentration 0.001 (unit not given)): 833.107 and 838.64 and 841.342
CMC [3]: 59 µM
CMC ([3]; weight/volume): 0.0072%
